Results on 47 compounds are retold here after ChEMBL document CHEMBL5331078, “1-Benzyloxy-5-phenyltetrazole derivatives highly active against androgen receptor-dependent prostate cancer cells” (Eur J Med Chem, 2023).

The test system of one data set is CWR22R. Description: Antiproliferative activity against AR-v7 positive human 22Rv1 cells measured after 3 days by celltiter-glo luminescence assay. Type of data set: functional, cell-based.
The next data set has as its system PC-3. Description: Antiproliferative activity against human PC-3 cells measured after 3 days by celltiter-glo luminescence assay. Type of data set: functional, cell-based. To be noted: PC-3, 72 h.
Another data set has as its target T1, Papain (Carica papaya, UniProt P00784).
T1 sequence (P00784 whole entry): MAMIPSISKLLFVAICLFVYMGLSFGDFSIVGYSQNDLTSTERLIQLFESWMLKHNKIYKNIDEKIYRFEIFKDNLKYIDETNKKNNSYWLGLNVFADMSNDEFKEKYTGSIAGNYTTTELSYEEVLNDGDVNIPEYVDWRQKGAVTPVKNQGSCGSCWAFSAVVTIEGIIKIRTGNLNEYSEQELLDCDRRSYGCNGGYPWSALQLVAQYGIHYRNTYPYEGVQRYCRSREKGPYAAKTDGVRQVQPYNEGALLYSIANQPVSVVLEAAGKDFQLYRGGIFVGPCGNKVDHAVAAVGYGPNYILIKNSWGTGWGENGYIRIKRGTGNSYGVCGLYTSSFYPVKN
As to the kind of experiment: Inhibition of papaya papain protease activity assessed as covalent binding mode of action at 10 uM incubated for 30 mins by absorbance based analysis. The conditions noted are these: 0.5 h.

A short description of data set [1]: Antiproliferative activity against Ar-luc mouse Adipose stromal cell measured after 3 days by celltiter-glo luminescence assay. Type of data set: toxicity, cell-based. To be noted: Ar-luc mouse adipose stromal cells.
Data set [2] can be described thus: Metabolic stability in mouse liver microsomes assessed as intrinsic clearance incubated for 60 mins in presence of NADPH-regenerating system. Type of data set: ADME, Microsome. The conditions noted are these: microsomes, 1 h. A general note: Liver microsomes are vesicles of endoplasmic reticulum, rich in cytochrome P450 enzymes.
Data set [3] can be described thus: Kinetic solubility of the compound in 0.01 M HCl at pH 2 after 30 mins by nephelometry. It counts as physicochemical. To be noted: read-out: Kinetic_solubility.
Data set [4] can be described thus: Metabolic stability in mouse liver microsomes assessed as half life incubated for 60 mins in presence of NADPH-regenerating system. Type of data set: ADME, Microsome. The conditions noted are these: microsomes, 1 h.
Data set [5] in a line: Partition coefficient, logD of the compound at pH 7.4 by HPLC analysis. It counts as physicochemical. The conditions noted are these: octanol/water.
A short description of data set [6]: Kinetic solubility of the compound in phosphate buffer at pH 6.5 after 30 mins by nephelometry. Type of data set: physicochemical. To be noted: read-out: Kinetic_solubility.
Where [7] appears, read: Homo sapiens, 22Rv1, 72 h, read-out: IC50.

Take `Fc1ccc(On2nnnc2-c2ccc(Cl)cc2)cc1`: the IC50 in the data set on CWR22R (setting [7]) and with PC-3 was more than 10 µM each time.

As for `FC(F)(On1nnnc1-c1ccc(Cl)cc1)c1ccccc1`, the IC50 in the data set on CWR22R (setting [7]) and with PC-3 was more than 10 µM throughout. Moreover, the “inhibition (INH)” value on Papain is on record as “Not Active”.

With `Clc1ccc(COn2nnnc2-c2ccc(Cl)cc2Cl)cc1`, the IC50 – broadly, the concentration needed to halve the response being measured – in the data set on CWR22R (setting [7]) is 3.79 µM; in the data set with PC-3, more than 100 µM. In data set [1], this compound came in with an IC50 at 3 days of more than 100 µM.

As to `CC(C)(On1nnnc1-c1ccc(Cl)cc1)c1ccc(Cl)cc1`, the IC50 with CWR22R (setting [7]) was more than 10 µM.

As for `Fc1ccc(On2nnnc2-c2ccc(F)cc2)cc1`, the IC50 in the data set with CWR22R (setting [7]) and with PC-3 was more than 10 µM in each case.

Regarding `Cc1nn(C)c(Cl)c1-c1nnnn1OCc1cccc(Cl)c1`, the IC50 entry with CWR22R (cwr22r) is recorded as “Not Active”.

Consider `Fc1ccc(-c2nnnn2OC(F)(F)c2ccc(Cl)cc2)cc1`, for which the IC50 in the data set on CWR22R (setting [7]) and in the data set on PC-3 was more than 10 µM in each case.

With `Fc1ccc(-c2nnnn2OCc2ccc(Cl)c(Cl)c2)cc1`, the IC50 was 0.066 µM in the data set on CWR22R (setting [7]) and more than 100 µM in the data set with PC-3. This compound also registered an IC50 at 3 days in [1] of 23.4 µM.

In the case of `CNC(=O)c1ccc(N2C(=S)N(c3ccc(C#N)c(C(F)(F)F)c3)C(=O)C2(C)C)cc1F` [ENZALUTAMIDE], the IC50 in the data set with CWR22R (setting [7]) amounted to 36 µM; with PC-3 it was 42 µM.

In the case of `Fc1cccc(COn2nnnc2-c2ccc(Cl)cc2)c1`, the results for the IC50 with CWR22R (setting [7]) and in the data set with PC-3 were 0.012 µM and more than 100 µM, respectively. The compound further had an IC50 at 3 days in [1] of 2.6 µM.

As for `Clc1ccc(On2nnnc2-c2ccc(Cl)cc2)cc1`, the IC50 in the data set with CWR22R (setting [7]) and in the data set with PC-3 was more than 10 µM throughout.

Regarding `Clc1ccc(COn2nnnc2-c2cccnc2)cc1`, the IC50 entry in the data set on CWR22R (cwr22r) was “Not Active”.

Consider `Clc1cccc(COn2nnnc2-c2cccnc2)c1`, for which the IC50 in the data set on CWR22R (setting [7]) is 3.55 µM; with PC-3, more than 10 µM.

For the compound `COc1ccc(-c2nnnn2OCc2cccc(Cl)c2)cc1`, the figures for the IC50 in the data set on CWR22R (setting [7]) and with PC-3 were 0.023 µM and more than 100 µM, respectively. The same compound gave an IC50 at 3 days in data set [1] of 6.8 µM.

For `Clc1ccc(COn2nnnc2-c2cccc(Cl)c2)cc1`, the figures for the IC50 in the data set with CWR22R (setting [7]) and in the data set with PC-3 were 2.03 µM and more than 100 µM, respectively. Further, it took 36.3 µM to reach half-maximal inhibition in [1] (IC50 at 3 days).

Take `Clc1ccc(-c2nnnn2OCc2cccc(Br)c2)cc1`: the IC50 in the data set with CWR22R (setting [7]) is 0.066 µM; with PC-3, more than 100 µM. In data set [1], this compound came in with an IC50 at 3 days of more than 100 µM.

As to `FC(F)(F)c1cccc(COn2nnnc2-c2ccc(Cl)cc2)c1`, the IC50 in the data set on CWR22R (setting [7]) came out at 0.261 µM; in the data set on PC-3, 16.8 µM. The same compound came in with an IC50 at 3 days in data set [1] of 4.9 µM.

Take `Clc1ccc(-c2nnnn2OCc2cccc(Cl)c2)cc1`: the IC50 in the data set with CWR22R (setting [7]) was 0.073 µM; with PC-3, 6.79 µM. For the same compound, in data set [2], the CLH was determined as 147 µL/min/mg. Besides, the solubility kinetic at 0.5 h in data set [3] and in data set [6] was less than 1.6 µg/mL in each case. The t1/2 in data set [4] was determined as 2.45 h. In data set [5], the logD (in general, lipophilicity at a set pH, counting ionised and neutral species) came to 4.5. The IC50 at 3 days in [1] is more than 60 µM.

On to `FC(F)(F)c1cccc(COn2nnnc2-c2cccc(C(F)(F)F)c2)c1`, for which the IC50 in the data set on CWR22R (setting [7]) and with PC-3 was more than 10 µM throughout.

Take `Clc1ccc(-c2nnnn2OCc2ccc(Br)cc2)cc1`: the IC50 turned out to be 0.023 µM in the data set on CWR22R (setting [7]) and 52.1 µM in the data set on PC-3. This compound showed an IC50 at 3 days in [1] of 13.8 µM.

As for `Clc1ccc(CCOn2nnnc2-c2ccc(Cl)cc2)cc1`, the IC50 in the data set with CWR22R (setting [7]) is more than 10 µM.

`Fc1ccc(-c2nnnn2OCc2ccnc(Cl)c2)cc1`: the IC50 was 0.5 µM in the data set on CWR22R (setting [7]) and more than 100 µM in the data set with PC-3. Also, in [1], the midpoint of inhibition, the IC50 at 3 days, lay at 15 µM.

In the case of `O=C(Nn1nnnc1-c1ccccc1)c1ccc(Cl)cc1`, in the data set with CWR22R (setting [7]), the IC50 was more than 10 µM.

In the case of `Clc1ccc(-c2nnnn2OCc2ccc(Cl)c(Cl)c2)cc1`, the IC50 in the data set with CWR22R (setting [7]) was 0.1 µM; in the data set with PC-3, more than 60 µM. Besides, the IC50 at 3 days in data set [1] is more than 60 µM.

With `COc1ccc(-c2nnnn2OC(F)(F)c2ccccc2)cc1`, the results for the IC50 in the data set on CWR22R (setting [7]) and in the data set with PC-3 were 5.41 µM and more than 10 µM, respectively.

For `Clc1ccc(/C=N\OCc2ccc(Cl)cc2)cc1`, the IC50 in the data set with CWR22R (setting [7]) and with PC-3 was more than 10 µM in each case.

In the case of `Clc1ccc(-c2nnnn2OCc2ccnc(Cl)c2)cc1`, the IC50 in the data set with CWR22R (setting [7]) turned out to be 0.022 µM; with PC-3, 14.2 µM. In addition, it took 7 µM to reach half-maximal inhibition in data set [1] (IC50 at 3 days).

With `Fc1ccc(-c2nnnn2OCc2cccc(Cl)c2)cc1`, the values for the IC50 with CWR22R (setting [7]) and in the data set with PC-3 were 0.076 µM and more than 100 µM, respectively. Further, the IC50 at 3 days in data set [1] was more than 60 µM.

In the case of `Fc1ccc(-c2nnnn2OCc2ccc(Cl)cc2)cc1`, the IC50 was determined as 0.74 µM in the data set with CWR22R (setting [7]) and 47.4 µM with PC-3. The compound also showed an IC50 at 3 days in data set [1] of more than 100 µM. Besides, the “inhibition (INH)” value at Papain is given as “Not Active”.

Consider `Clc1ccc(-c2nnnn2OCc2ccc(Cl)nc2)cc1`, for which the IC50 with CWR22R (setting [7]) was 0.391 µM; with PC-3, more than 100 µM. This compound also returned an IC50 at 3 days in [1] of 3 µM.

Regarding `Fc1ccc(CO/N=C\c2ccc(Cl)cc2)cc1`, the IC50 with CWR22R (setting [7]) and with PC-3 was more than 10 µM each time.

As to `Clc1ccc(-c2nnnn2OCC2CC2)cc1`, the IC50 with CWR22R (setting [7]) and with PC-3 was more than 10 µM each time.

`Cc1nn(C)c(Cl)c1-c1nnnn1OCc1ccc(Cl)cc1`: the IC50 entry in the data set with CWR22R (cwr22r) is “Not Active”.

Consider `CC(C)(c1ccc(Cl)cc1)n1nnnc1-c1ccc(Cl)cc1`, for which the IC50 in the data set on CWR22R (setting [7]) was more than 10 µM.

As for `Fc1ccc(COn2nnnc2-c2ccc(Cl)cc2)cc1`, the IC50 in the data set with CWR22R (setting [7]) amounted to 0.031 µM; in the data set on PC-3, 25.7 µM. In data set [1], the IC50 at 3 days was 5.4 µM.

As for `Clc1cccc(COn2nnnc2-c2cccc(Cl)c2)c1`, the figures for the IC50 with CWR22R (setting [7]) and in the data set with PC-3 were 0.036 µM and more than 100 µM, respectively. In addition, the IC50 at 3 days in [1] turned out to be 10.6 µM.

`Clc1ccc(-c2nnnn2OCc2ccccc2)cc1`: the IC50 came out at 0.04 µM with CWR22R (setting [7]) and 0.566 µM in the data set with PC-3.

Regarding `Clc1ccc(CCn2nnnc2-c2ccc(Cl)cc2)cc1`, the IC50 in the data set on CWR22R (setting [7]) is more than 10 µM.

Turning to `Clc1ccc(-c2nnnn2OCC2CCCCC2)cc1`, the IC50 in the data set with CWR22R (setting [7]) and in the data set on PC-3 was more than 10 µM throughout.

As to `COc1ccc(-c2nnnn2OCc2ccc(Cl)cc2)cc1`, the IC50 with CWR22R (setting [7]) was found to be 0.025 µM; in the data set on PC-3, 30.2 µM. The compound also returned an IC50 at 3 days in data set [1] of 22.9 µM.

As for `Fc1ccc(-c2nnnn2OCc2ccc(Cl)s2)cc1`, the IC50 in the data set with CWR22R (setting [7]) is 3.75 µM; in the data set with PC-3 it was more than 100 µM. The IC50 at 3 days in [1] was more than 100 µM.

For `COc1ccc(COn2nnnc2-c2ccc(Cl)cc2)cc1`, the IC50 in the data set on CWR22R (setting [7]) and in the data set on PC-3 was more than 10 µM each time.

Consider `Fc1ccc(-c2nnnn2OCCc2ccc(Cl)cc2)cc1`, for which the IC50 in the data set with CWR22R (setting [7]) is more than 10 µM.

For `CC(On1nnnc1-c1ccc(Cl)cc1)c1ccc(Cl)cc1` (stereo not drawn), the IC50 with CWR22R (setting [7]) is 1.71 µM; with PC-3, more than 10 µM.

Regarding `Clc1cccc(COn2nnnc2-c2ccc(Cl)cc2Cl)c1`, the IC50 is 0.4 µM with CWR22R (setting [7]) and more than 100 µM in the data set with PC-3. The same compound registered an IC50 at 3 days in data set [1] of more than 100 µM.

As to `Clc1ccc(-c2nnnn2OCc2ccc(Cl)s2)cc1`, the results for the IC50 in the data set with CWR22R (setting [7]) and in the data set with PC-3 were 0.131 µM and more than 100 µM, respectively. Further, the IC50 at 3 days in data set [1] is more than 60 µM.

Regarding `COc1ccc(COn2nnnc2-c2ccc(OC)cc2)cc1`, the IC50 is 9.1 µM in the data set on CWR22R (setting [7]) and more than 10 µM in the data set with PC-3.
